Results on 18 compounds are retold here after patent US20230024096A1, “BIFUNCTIONAL COMPOUNDS FOR THE TREATMENT OF CANCER” (Hoffmann-La Roche Inc., priority 2019, published 2023).

The structures appear in SMILES notation.

The target of this assay is T1, SMARCA2 (Homo sapiens, UniProt P51531).
T1 construct: endogenous in cells; host or cells: HT1080 (CRISPR HiBiT knock-in clone, generated in house)
The assay is described as follows: SMARCA2 HiBiT degradation assay (cellular). It is filed as cell-based. The note with it: table head names A549; for DC50: 6 h incubation, HiBiT-tagged SMARCA2, luminescence read-out, read-out: HiBit A549 SMARCA2 IP (nM) 6 h; for Emax: A549, 6 h incubation, Emax = amount of residual protein remaining in the cell following compound treatment.

T1 sequence (P51531 whole entry): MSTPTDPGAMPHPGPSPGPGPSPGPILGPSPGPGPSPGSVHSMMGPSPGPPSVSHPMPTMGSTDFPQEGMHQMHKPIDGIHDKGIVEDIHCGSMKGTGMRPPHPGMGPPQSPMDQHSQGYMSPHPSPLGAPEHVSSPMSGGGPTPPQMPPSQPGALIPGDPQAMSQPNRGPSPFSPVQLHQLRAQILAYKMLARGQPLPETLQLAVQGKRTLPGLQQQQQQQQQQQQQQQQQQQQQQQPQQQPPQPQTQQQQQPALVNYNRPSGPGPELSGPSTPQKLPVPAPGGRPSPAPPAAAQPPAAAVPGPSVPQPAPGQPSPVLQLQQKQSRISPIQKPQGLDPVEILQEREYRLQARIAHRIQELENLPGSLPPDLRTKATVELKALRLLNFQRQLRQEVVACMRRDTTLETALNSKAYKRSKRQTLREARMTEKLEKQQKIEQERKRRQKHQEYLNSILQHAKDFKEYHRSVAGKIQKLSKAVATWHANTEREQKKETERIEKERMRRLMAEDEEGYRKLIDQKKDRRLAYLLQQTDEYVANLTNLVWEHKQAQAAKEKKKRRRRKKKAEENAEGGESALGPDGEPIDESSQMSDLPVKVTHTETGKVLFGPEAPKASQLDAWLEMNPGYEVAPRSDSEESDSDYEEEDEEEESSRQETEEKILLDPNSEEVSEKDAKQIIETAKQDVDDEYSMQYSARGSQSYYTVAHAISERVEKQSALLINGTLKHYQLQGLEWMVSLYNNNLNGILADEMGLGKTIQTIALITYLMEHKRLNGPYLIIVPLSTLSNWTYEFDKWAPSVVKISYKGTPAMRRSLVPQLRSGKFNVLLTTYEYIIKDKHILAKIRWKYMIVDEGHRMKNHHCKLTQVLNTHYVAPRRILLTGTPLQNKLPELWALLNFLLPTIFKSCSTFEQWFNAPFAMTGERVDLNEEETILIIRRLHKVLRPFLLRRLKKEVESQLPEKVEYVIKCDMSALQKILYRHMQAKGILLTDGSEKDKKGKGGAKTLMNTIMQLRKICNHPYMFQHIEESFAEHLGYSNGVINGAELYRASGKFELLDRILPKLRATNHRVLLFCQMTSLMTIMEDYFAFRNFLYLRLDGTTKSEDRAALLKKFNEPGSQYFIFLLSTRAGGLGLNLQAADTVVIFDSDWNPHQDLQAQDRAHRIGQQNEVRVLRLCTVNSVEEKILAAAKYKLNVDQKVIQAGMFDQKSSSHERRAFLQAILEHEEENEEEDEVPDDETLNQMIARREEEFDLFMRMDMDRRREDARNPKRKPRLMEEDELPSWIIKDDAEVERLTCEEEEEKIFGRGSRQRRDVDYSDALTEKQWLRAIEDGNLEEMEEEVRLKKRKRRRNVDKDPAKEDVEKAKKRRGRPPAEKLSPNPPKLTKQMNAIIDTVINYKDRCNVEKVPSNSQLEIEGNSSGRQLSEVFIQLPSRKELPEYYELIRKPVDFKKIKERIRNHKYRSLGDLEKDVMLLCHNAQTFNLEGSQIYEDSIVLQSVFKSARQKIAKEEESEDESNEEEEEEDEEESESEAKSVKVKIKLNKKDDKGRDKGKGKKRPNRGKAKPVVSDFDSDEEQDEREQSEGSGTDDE

Consider `Nc1nnc(-c2cc(F)ccc2O)cc1OC1CCCN(c2ccc(N3CCN(C(=O)CCCCCCCCn4cc(CNc5cccc6c5C(=O)N(C5CCC(=O)NC5=O)C6=O)nn4)CC3)cc2)C1` (stereo not drawn) [Example 64, 4-[[1-[9-[4-[4-[3-[3-amino-6-(5-fluoro-2-hydroxy-phenyl)pyridazin-4-yl]oxy-1-piperidyl]phenyl]piperazin-1-yl]-9-oxo-nonyl]triazol-4-yl]methylamino]-2-(2,6-dioxo-3-piperidyl)isoindoline-1,3-dione], for which the DC50 turned out to be 82 nM and the Emax worked out at 52%.
`Nc1nnc(-c2ccccc2O)cc1N1CCC(C(=O)NCC2CCN(C(=O)C3CCN(c4ccc5c(c4)C(=O)N(C4CCC(=O)NC4=O)C5=O)CC3)CC2)(c2ccccc2)CC1` (stereo not drawn) [Example 86, 1-[3-amino-6-(2-hydroxyphenyl)pyridazin-4-yl]-N-[[1-[1-[2-(2,6-dioxo-3-piperidyl)-1,3-dioxo-isoindolin-5-yl]piperidine-4-carbonyl]-4-piperidyl]methyl]-4-phenyl-piperidine-4-carboxamide]: the DC50 was determined as 59 nM and the Emax came to 37%.
The matching figures for `Nc1nnc(-c2ccccc2O)cc1OC1CCCN(c2ccc(N3CCN(C(=O)CCCCCCCCn4cc(CNc5cccc6c5C(=O)N(C5CCC(=O)NC5=O)C6)nn4)CC3)cc2)C1` (stereo not drawn) [Example 111, 3-[7-[[1-[9-[4-[4-[3-[3-amino-6-(2-hydroxyphenyl)pyridazin-4-yl]oxy-1-piperidyl]phenyl]piperazin-1-yl]-9-oxo-nonyl]triazol-4-yl]methylamino]-1-oxo-isoindolin-2-yl]piperidine-2,6-dione]: 177 nM and 60%.
The like results for `Nc1nnc(-c2ccccc2O)cc1N1CC2CCC(C1)N2c1cccc(OCCN2CCN(C(=O)CN3CCC(c4ccc(NC5CCC(=O)NC5=O)cc4)CC3)CC2)c1` (racemic) [Example 79, rac-3-[4-[1-[2-[4-[2-[3-[3-[3-amino-6-(2-hydroxyphenyl)pyridazin-4-yl]-3,8-diazabicyclo[3.2.1]octan-8-yl]phenoxy]ethyl]piperazin-1-yl]-2-oxo-ethyl]-4-piperidyl]anilino]piperidine-2,6-dione] were, in that order, 19 nM and 46%.
The matching figures for `Nc1nnc(-c2ccccc2O)cc1N1CC2CCC(C1)N2c1cccc(OCCN2CCN(C(=O)C3CN(c4ccc5c(c4)C(=O)N(C4CCC(=O)NC4=O)C5=O)C3)CC2)c1` (racemic) [Example 60, rac-5-[3-[4-[2-[3-[3-[3-amino-6-(2-hydroxyphenyl)pyridazin-4-yl]-3,8-diazabicyclo[3.2.1]octan-8-yl]phenoxy]ethyl]piperazine-1-carbonyl]azetidin-1-yl]-2-(2,6-dioxo-3-piperidyl)isoindoline-1,3-dione]: 18 nM and 32%.
For `Nc1nnc(-c2ccccc2O)cc1N1CC2CCC(C1)N2c1cccc(OCCN2CCN(C(=O)CCNC(=O)C3CCN(c4ccc5c(c4)C(=O)N(C4CCC(=O)NC4=O)C5=O)CC3)CC2)c1` (racemic) [Example 42, rac-N-[3-[4-[2-[3-[3-[3-amino-6-(2-hydroxyphenyl)pyridazin-4-yl]-3,8-diazabicyclo[3.2.1]octan-8-yl]phenoxy]ethyl]piperazin-1-yl]-3-oxo-propyl]-1-[2-(2,6-dioxo-3-piperidyl)-1,3-dioxo-isoindolin-5-yl]piperidine-4-carboxamide], the DC50 is 519 nM and the Emax came out at 49%.
In the case of `Nc1nnc(-c2ccccc2O)cc1OC1CCCN(c2ccc(OCCN3CCN(C(=O)CCCCCCCCCCCCCCn4cc(CNc5cccc6c5C(=O)N(C5CCC(=O)NC5=O)C6=O)nn4)CC3)cc2)C1` (stereo not drawn) [Example 24, 4-[[1-[15-[4-[2-[4-[3-[3-amino-6-(2-hydroxyphenyl)pyridazin-4-yl]oxy-1-piperidyl]phenoxy]ethyl]piperazin-1-yl]-15-oxo-pentadecyl]triazol-4-yl]methylamino]-2-(2,6-dioxo-3-piperidyl)isoindoline-1,3-dione], the DC50 came to 256 nM and the maximal effect (Emax) stood at 56%.
For `Nc1nnc(-c2ccccc2O)cc1N1CC(Oc2cccc(CN3CCN(C(=O)CN4CCC(c5ccc(NC6CCC(=O)NC6=O)cc5)CC4)CC3)c2)C1` (racemic) [Example 156, rac-3-[4-[1-[2-[4-[[3-[1-[3-amino-6-(2-hydroxyphenyl)pyridazin-4-yl]azetidin-3-yl]oxyphenyl]methyl]piperazin-1-yl]-2-oxo-ethyl]-4-piperidyl]anilino]piperidine-2,6-dione], the DC50 is 3 nM and the Emax stood at 17%.
In the case of `Nc1nnc(-c2ccccc2O)cc1N1CC2CCC(C1)N2c1cccc(OCCN2CCN(C(=O)N3CCC(Oc4ccc5c(c4)C(=O)N(C4CCC(=O)NC4=O)C5=O)CC3)CC2)c1` (racemic) [Example 40, rac-5-[[1-[4-[2-[3-[3-[3-amino-6-(2-hydroxyphenyl)pyridazin-4-yl]-3,8-diazabicyclo[3.2.1]octan-8-yl]phenoxy]ethyl]piperazine-1-carbonyl]-4-piperidyl]oxy]-2-(2,6-dioxo-3-piperidyl)isoindoline-1,3-dione], the DC50 turned out to be 22 nM and the Emax amounted to 32%.
Turning to `Nc1nnc(-c2ccccc2O)cc1N1CCC(C(=O)N2CCC3(CC2)CN(C(=O)CC2CCN(c4ccc5c(c4)C(=O)N(C4CCC(=O)NC4=O)C5=O)CC2)CCO3)(c2ccccc2)CC1` (stereo not drawn) [Example 168, 5-(4-(2-(9-(1-(3-amino-6-(2-hydroxyphenyl)pyridazin-4-yl)-4-phenylpiperidine-4-carbonyl)-1-oxa-4,9-diazaspiro[5.5]undecan-4-yl)-2-oxoethyl)piperidin-1-yl)-2-(2,6-dioxopiperidin-3-yl)isoindoline-1,3-dione], the DC50 is 111 nM and the Emax stood at 60%.
The matching figures for `Nc1nnc(-c2ccccc2O)cc1N1CC(Oc2cccc(C(=O)N3CCN(C(=O)CCCCCCNc4cccc5c4C(=O)N(C4CCC(=O)NC4=O)C5=O)CC3)c2)C1` (stereo not drawn) [Example 145, 4-[[7-[4-[3-[1-[3-amino-6-(2-hydroxyphenyl)pyridazin-4-yl]azetidin-3-yl]oxybenzoyl]piperazin-1-yl]-7-oxo-heptyl]amino]-2-(2,6-dioxo-3-piperidyl)isoindoline-1,3-dione]: 928 nM and 69%.
Turning to `Nc1nnc(-c2ccccc2O)cc1O[C@@H]1CCCN(c2ccc(N3CCN(CCCCCCCCCn4cc(CNc5cccc6c5C(=O)N(C5CCC(=O)NC5=O)C6=O)nn4)CC3)cc2)C1` (stereo partly drawn) [Example 63, 4-[[1-[9-[4-[4-[(3R)-3-[3-amino-6-(2-hydroxyphenyl)pyridazin-4-yl]oxy-1-piperidyl]phenyl]piperazin-1-yl]nonyl]triazol-4-yl]methylamino]-2-(2,6-dioxo-3-piperidyl)isoindoline-1,3-dione], the DC50 was 59 nM and the Emax was 27%.
The like results for `Nc1nnc(-c2ccccc2O)cc1OC1CCCN(c2ccc(OCCN3CCN(C(=O)CCCCCCCCCCCn4cc(CNc5cccc6c5C(=O)N(C5CCC(=O)NC5=O)C6=O)nn4)CC3)cc2)C1` (stereo not drawn) [Example 23, 4-[[1-[12-[4-[2-[4-[3-[3-amino-6-(2-hydroxyphenyl)pyridazin-4-yl]oxy-1-piperidyl]phenoxy]ethyl]piperazin-1-yl]-12-oxo-dodecyl]triazol-4-yl]methylamino]-2-(2,6-dioxo-3-piperidyl)isoindoline-1,3-dione] were, in that order, 157 nM and 45%.
On to `Nc1nnc(-c2ccccc2O)cc1N1CC(Oc2cccc(N3CCN(C(=O)CCC4CCN(c5ccc6c(c5)C(=O)N(C5CCC(=O)NC5=O)C6=O)CC4)CC3)c2)C1` (racemic) [Example 153, rac-5-[4-[3-[4-[3-[1-[3-amino-6-(2-hydroxyphenyl)pyridazin-4-yl]azetidin-3-yl]oxyphenyl]piperazin-1-yl]-3-oxo-propyl]-1-piperidyl]-2-(2,6-dioxo-3-piperidyl)isoindoline-1,3-dione], for which the DC50 amounted to 19 nM and the Emax turned out to be 21%.
With `Nc1nnc(-c2ccccc2O)cc1N1CCN(c2cccc(CN3CCN(C(=O)CCC4CCN(c5ccc6c(c5)C(=O)N(C5CCC(=O)NC5=O)C6=O)CC4)CC3)c2)C2(CC2)C1` (stereo not drawn) [Example 128, 5-(4-(3-(4-(3-(7-(3-amino-6-(2-hydroxyphenyl)pyridazin-4-yl)-4,7-diazaspiro[2.5]octan-4-yl)benzyl)piperazin-1-yl)-3-oxopropyl)piperidin-1-yl)-2-(2,6-dioxopiperidin-3-yl)isoindoline-1,3-dione], the DC50 was determined as 18 nM and the maximal effect (Emax) was 37%.
The like results for `Nc1nnc(-c2ccccc2O)cc1N1CCC(C(=O)NCC2CCN(CC3CCN(c4ccc5c(c4)C(=O)N(C4CCC(=O)NC4=O)C5=O)CC3)CC2)(c2ccccc2)C1` (stereo not drawn) [Example 124, 1-[3-amino-6-(2-hydroxyphenyl)pyridazin-4-yl]-N-[[1-[[l-[2-(2,6-dioxo-3-piperidyl)-1,3-dioxo-isoindolin-5-yl]-4-piperidyl]methyl]-4-piperidyl]methyl]-3-phenyl-pyrrolidine-3-carboxamide] were, in that order, 272 nM and 63%.
The like results for `Nc1nnc(-c2ccccc2O)cc1N1CC2CCC(C1)N2c1cccc(OCCN2CCN(C(=O)CCC(=O)N3CCC(Nc4cccc5c4C(=O)N(C4CCC(=O)NC4=O)C5=O)CC3)CC2)c1` (racemic) [Example 20, rac-4-[[1-[4-[4-[2-[3-[3-[3-amino-6-(2-hydroxyphenyl)pyridazin-4-yl]-3,8-diazabicyclo[3.2.1]octan-8-yl]phenoxy]ethyl]piperazin-1-yl]-4-oxo-butanoyl]-4-piperidyl]amino]-2-(2,6-dioxo-3-piperidyl)isoindoline-1,3-dione] were, in that order, 168 nM and 49%.
The like results for `Nc1nnc(-c2ccccc2O)cc1N1CCC(C(=O)NCC2CCN(CC3CCN(c4ccc5c(c4)C(=O)N(C4CCC(=O)NC4=O)C5=O)CC3)CC2)(c2ccccc2)CC1` (stereo not drawn) [Example 100, 1-(3-amino-6-(2-hydroxyphenyl)pyridazin-4-yl)-N-((1-((1-(2-(2,6-dioxopiperidin-3-yl)-1,3-dioxoisoindolin-5-yl)piperidin-4-yl)methyl)piperidin-4-yl)methyl)-4-phenylpiperidine-4-carboxamide] were, in that order, 104 nM and 30%.

For orientation: Emax means the maximal effect, on the per cent scale that the assay sets.
